Data on 5 compounds can be found in the NIST ThermoML archive (doi:10.1016/j.tca.2017.09.023).

A short description of data set [1]: Molar enthalpy of transition or fusion. The note with it: DSC.
The conditions of data set [2]: for Normal melting temperature: DTA; for Triple point temperature: DSC.

Where “and” joins values, the source holds several entries; their conditions need not be identical. Equal values may be shown once. ± gives the expanded uncertainty stated by the source.

With `Cc1c(C)c(C)c(C)c(C)c1C` [hexamethylbenzene], the “Molar enthalpy of transition or fusion” value in data set [1] (Crystal 2) is 0.399 ± 0.335 kcal/mol; in data set [1] (Crystal 3) it was 0.136 ± 0.335 kcal/mol; in data set [1] (Crystal), 4.91 ± 0.359 kcal/mol. Further, in data set [2] (Crystal 1), the Normal melting temperature is 166.1 ± 1.1 °C and 167.5 ± 2 °C. Besides, the Triple point temperature in data set [2] (Crystal 2) was 384.9 ± 1.2 K; in data set [2] (Crystal 3), 117.4 ± 1.2 K.
Regarding `Cc1c(C)c(C)c(Br)c(C)c1C` [bromopentamethylbenzene], the “Molar enthalpy of transition or fusion” value in data set [1] (Crystal 2) turned out to be 1.03 ± 0.335 kcal/mol; in data set [1] (Crystal) it was 3.61 ± 0.359 kcal/mol. For the same compound, the Normal melting temperature in data set [2] (Crystal 1) came to 163.0 ± 1.1 °C. The Triple point temperature in data set [2] (Crystal 2) worked out at 411.6 ± 1.2 K.
On to `Clc1c(Cl)c(Cl)c(Cl)c(Cl)c1Cl` [hexachlorobenzene], for which the “Molar enthalpy of transition or fusion” value in data set [1] (Crystal) worked out at 5.72 ± 0.311 kcal/mol. In addition, the Normal melting temperature in data set [2] (Crystal) was 230.1 ± 2 °C and 231 ± 1.1 °C.
For the compound `Nc1c(Cl)c(Cl)c(Cl)c(Cl)c1Cl` [pentachlorobenzenamine], the “Molar enthalpy of transition or fusion” value in data set [1] (Crystal) was 4.42 ± 0.311 kcal/mol. The Normal melting temperature in data set [2] (Crystal) stood at 235.4 ± 1.1 °C.
Turning to `c1ccc(-c2ccccc2-c2ccccc2)cc1` [o-terphenyl], in data set [2] (Crystal), the Normal melting temperature came to 57.2 ± 2 °C.
